T/C data for 22 compounds are collected here from PubChem BioAssay AID248 (DTP/NCI, 2004).

Where “and” joins values, the source holds several entries; their conditions need not be identical. Equal entries are not always repeated. Inconclusive results and toxic doses are left out.

The subject of the assay is L1210 leukemia ip in BDF1 mice, survival T/C. As to the kind of experiment: NCI In Vivo Anticancer Drug Screen. Data for tumor model L1210 Leukemia (intraperitoneal) in B6D2F1 (BDF1) mice. The settings on record: endpoint: mean survival time, higher = longer survival. Put shortly:
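Tumor was transplanted into mice, which were then dosed with test compound or vehicle alone. Survival was recorded for each group, and the treated figure was expressed relative to the control figure.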

The mark [1] stands for this setting: dose: 100.0 mg/kg/injection, schedule: Q04DX003 (ip), vehicle: saline with Tween-80.
Setting [2] is: dose: 200.0 mg/kg/injection, schedule: Q04DX003 (ip), vehicle: saline with Tween-80.
Where [3] appears, read: dose: 400.0 mg/kg/injection, schedule: Q04DX003 (ip), vehicle: saline with Tween-80.
[4] abbreviates: dose: 75.0 mg/kg/injection, schedule: Q01DX001 (ip), vehicle: carboxymethylcellulose (CMC).
[5] abbreviates: dose: 150.0 mg/kg/injection, schedule: Q01DX001 (ip), vehicle: carboxymethylcellulose (CMC).
[6] abbreviates: dose: 100.0 mg/kg/injection, schedule: Q01DX009 (ip), vehicle: saline with Tween-80.
Setting [7] is: dose: 200.0 mg/kg/injection, schedule: Q01DX009 (ip), vehicle: saline with Tween-80.
[8] abbreviates: dose: 400.0 mg/kg/injection, schedule: Q01DX009 (ip), vehicle: saline with Tween-80.
Where [9] appears, read: dose: 100.0 mg/kg/injection, schedule: Q01DX001 (ip), vehicle: saline.
[10] abbreviates: dose: 200.0 mg/kg/injection, schedule: Q01DX001 (ip), vehicle: saline.
[11] abbreviates: dose: 400.0 mg/kg/injection, schedule: Q01DX001 (ip), vehicle: saline.
Where [12] appears, read: dose: 100.0 mg/kg/injection, schedule: Q04DX002 (ip), vehicle: Klucel (hydroxypropylcellulose) (HPC).

For the compound `CN(C)C1CCCC/C=C\C(=O)NC1` (stereo not drawn), the T/C runs as follows: (dose: 25.0 mg/kg/injection, schedule: Q04DX002 (ip), vehicle: saline) 99 % of control; (dose: 50.0 mg/kg/injection, schedule: Q04DX002 (ip), vehicle: saline) 101 % of control; (dose: 75.0 mg/kg/injection, schedule: Q01DX001 (ip), vehicle: saline) 109 % of control; (dose: 100.0 mg/kg/injection, schedule: Q04DX002 (ip), vehicle: saline) 99 % of control.

As for `COc1cc(/C=N\Nc2ccccc2[N+](=O)[O-])cc(OC)c1OC`, the T/C is 86 % of control under setting [1], 91 % of control under setting [2] and 89 % of control under setting [3].

Take `CC(=O)OCC1OC(C(N)=O)C(OC(C)=O)C1OC(C)=O` (stereo not drawn): the T/C was 102 % of control (dose: 100.0 mg/kg/injection, schedule: Q01DX001 (ip), vehicle: other); 93 % of control under setting [1]; 98 % of control (dose: 200.0 mg/kg/injection, schedule: Q01DX001 (ip), vehicle: other); 104 % of control under setting [2]; 98 % of control (dose: 400.0 mg/kg/injection, schedule: Q01DX001 (ip), vehicle: other); 98 % of control under setting [3].

As to `O=C(O)CCC(=O)Nc1ccc(Cl)cc1`, the T/C under setting [1] is 97 % of control, the T/C under setting [2] is 94 % of control and the T/C under setting [3] was 86 % of control.

As for `CC(=O)CC(=O)N(c1ccccn1)c1ccccn1`, the T/C (dose: 100.0 mg/kg/injection, schedule: Q01DX001 (ip), vehicle: carboxymethylcellulose (CMC)) is 104 % of control; the T/C (dose: 200.0 mg/kg/injection, schedule: Q01DX001 (ip), vehicle: carboxymethylcellulose (CMC)) is 98 % of control; the T/C (dose: 400.0 mg/kg/injection, schedule: Q01DX001 (ip), vehicle: carboxymethylcellulose (CMC)) is 98 % of control.

Regarding `CN(N)C(=O)Nc1ccccc1`, the T/C was 100 % of control under setting [4] and 100 % of control under setting [5].

Turning to `CN(C)C(=S)Oc1ccc(O)cc1`, the T/C runs as follows: (dose: 100.0 mg/kg/injection, schedule: Q01DX001 (ip), vehicle: saline with Tween-80) 102 % of control; (dose: 200.0 mg/kg/injection, schedule: Q01DX001 (ip), vehicle: saline with Tween-80) 97 % of control; (dose: 400.0 mg/kg/injection, schedule: Q01DX001 (ip), vehicle: saline with Tween-80) 100 % of control.

`FC(F)(F)c1cccc(NC(=S)N/N=C/c2ccccc2)c1`: the T/C is, setting by setting: under setting [6], 92 % of control; under setting [7], 97 % of control; under setting [8], 94 % of control.

For the compound `COc1ccc2c(c1C)CCC13CC(C)C(CC21)OC3=O` (stereo not drawn), the T/C reads like this: (dose: 100.0 mg/kg/injection, schedule: Q01DX001 (ip), vehicle: Klucel (hydroxypropylcellulose) (HPC)) 102 % of control; (dose: 200.0 mg/kg/injection, schedule: Q01DX001 (ip), vehicle: Klucel (hydroxypropylcellulose) (HPC)) 101 % of control; (dose: 400.0 mg/kg/injection, schedule: Q01DX001 (ip), vehicle: Klucel (hydroxypropylcellulose) (HPC)) 109 % of control.

With `C1=C2CCCCC2OC1` (stereo not drawn), the T/C is 97 % of control under setting [4] and 98 % of control under setting [5].

In the case of `Cc1ccc(CNc2ccc(Cl)cc2)cc1`, the T/C reads like this: (dose: 100.0 mg/kg/injection, schedule: Q01DX009 (ip), vehicle: Klucel (hydroxypropylcellulose) (HPC)) 95 % of control; (dose: 100.0 mg/kg/injection, schedule: Q04DX003 (ip), vehicle: Klucel (hydroxypropylcellulose) (HPC)) 96 % of control; (dose: 200.0 mg/kg/injection, schedule: Q01DX009 (ip), vehicle: Klucel (hydroxypropylcellulose) (HPC)) 104 % of control; (dose: 200.0 mg/kg/injection, schedule: Q04DX003 (ip), vehicle: Klucel (hydroxypropylcellulose) (HPC)) 98 % of control; (dose: 400.0 mg/kg/injection, schedule: Q04DX003 (ip), vehicle: Klucel (hydroxypropylcellulose) (HPC)) 96 % of control.

`CCOC(=O)/C(C#N)=C1\C=C(NCc2ccccc2)CCC1`: the T/C by setting is: under setting [9], 89 % of control; under setting [10], 96 % of control; under setting [11], 92 % of control.

Take `CC(C)(C)/C([O-])=N/[N+](C)(C)C`: the T/C is 108 % of control under setting [9], 97 % of control under setting [10] and 101 % of control under setting [11].

For `CCOC(=O)OCCCN(C)C`, the T/C is, setting by setting: under setting [6], 94 % of control; under setting [1], 100 % of control; under setting [7], 94 % of control; under setting [2], 93 % of control; under setting [8], 90 % of control; under setting [3], 96 % of control.

On to `Cn1ccoc1=NC1CCCCC1`, for which the T/C runs as follows: under setting [1], 96 % of control; under setting [2], 95 % of control.

In the case of `O=NN(CCCl)C(=O)Nc1ccc2[nH]c3ccccc3c2c1`, the T/C is, setting by setting: (dose: 90.0 mg/kg/injection, schedule: Q01DX009 (ip), vehicle: carboxymethylcellulose (CMC)) 120 % of control; (dose: 260.0 mg/kg/injection, schedule: Q01DX009 (ip), vehicle: Klucel (hydroxypropylcellulose) (HPC)) 108 % of control; (dose: 266.0 mg/kg/injection, schedule: Q01DX009 (ip), vehicle: carboxymethylcellulose (CMC)) 157 % of control; (dose: 520.0 mg/kg/injection, schedule: Q01DX009 (ip), vehicle: Klucel (hydroxypropylcellulose) (HPC)) 88 % of control; (dose: 600.0 mg/kg/injection, schedule: Q01DX009 (ip), vehicle: carboxymethylcellulose (CMC)) 108 % of control.

As to `Cc1ccc(OCC(O)CN2CCN(c3ccc(Cl)cc3)CC2)cc1` (stereo not drawn), the T/C was 95 % of control (dose: 63.0 mg/kg/injection, schedule: Q01DX015 (ip), vehicle: carboxymethylcellulose (CMC)); 91 % of control under setting [1]; 95 % of control (dose: 125.0 mg/kg/injection, schedule: Q01DX015 (ip), vehicle: carboxymethylcellulose (CMC)); 94 % of control under setting [2]; 95 % of control (dose: 250.0 mg/kg/injection, schedule: Q01DX015 (ip), vehicle: carboxymethylcellulose (CMC)); 89 % of control under setting [3]. Further, the T/C is 91 % of control (dose: 500.0 mg/kg/injection, schedule: Q01DX015 (ip), vehicle: carboxymethylcellulose (CMC)) and 95 % of control (dose: 1000.0 mg/kg/injection, schedule: Q01DX015 (ip), vehicle: carboxymethylcellulose (CMC)).

With `CC(C)CCC(C)O[Si](C)c1ccccc1` (stereo not drawn), the T/C runs as follows: under setting [1], 97 % of control; under setting [2], 99 % of control; under setting [3], 101 % of control.

In the case of `O=C(Nc1cc(Cl)ccc1Cl)OCCCl`, the T/C reads like this: under setting [12], 97 % of control; (dose: 200.0 mg/kg/injection, schedule: Q04DX002 (ip), vehicle: Klucel (hydroxypropylcellulose) (HPC)) 102 % of control; (dose: 400.0 mg/kg/injection, schedule: Q04DX002 (ip), vehicle: Klucel (hydroxypropylcellulose) (HPC)) 97 % of control.

Turning to `COc1ccc(C(C)(C)C#N)cc1`, the T/C was 102 % of control (dose: 50.0 mg/kg/injection, schedule: Q01DX001 (ip), vehicle: saline); 100 % of control under setting [9]; 100 % of control under setting [10]; 97 % of control under setting [11].

In the case of `O=C(Nc1ccc([N+](=O)[O-])cc1)Oc1c(Cl)cc(Cl)c(Cl)c1[N+](=O)[O-]`, the T/C is 112 % of control (dose: 25.0 mg/kg/injection, schedule: Q04DX002 (ip), vehicle: Klucel (hydroxypropylcellulose) (HPC)); 97 % of control (dose: 50.0 mg/kg/injection, schedule: Q04DX002 (ip), vehicle: Klucel (hydroxypropylcellulose) (HPC)); 94 % of control and 90 % of control under setting [12].

`Cc1cccc(CNCC(=O)O)c1`: the T/C is 105 % of control (dose: 100.0 mg/kg/injection, schedule: Q01DX009 (ip), vehicle: saline); 92 % of control (dose: 100.0 mg/kg/injection, schedule: Q04DX003 (ip), vehicle: saline); 92 % of control (dose: 200.0 mg/kg/injection, schedule: Q01DX009 (ip), vehicle: saline); 98 % of control (dose: 200.0 mg/kg/injection, schedule: Q04DX003 (ip), vehicle: saline); 105 % of control (dose: 400.0 mg/kg/injection, schedule: Q01DX009 (ip), vehicle: saline); 98 % of control (dose: 400.0 mg/kg/injection, schedule: Q04DX003 (ip), vehicle: saline).
